Experimental data taken from PMC7764330, “Bioassay-Guided Isolation of Anti-Alzheimer Active Components from the Aerial Parts of Hedyotis diffusa and Simultaneous Analysis for Marker Compounds” (Molecules, 2020).
Values after ≈ are worked out from the molar mass of the structure shown. Where two headings read alike, the source gives them in different places.

What was measured:
[1] = tested on: formation of advanced glycation end-product (AGE); experiment: Inhibition of formation of AGE (BSA with fructose and glucose, fluorescence); assay type: biochemical; details: mean ± SD, n = 3; for IC50: isolated compounds
Procedure: The inhibitory activity of the formation of AGE was measured with a spectrophotometric method developed previously, with slight modifications. Briefly, the assay mixture contained 50 mM phosphate buffer (pH 7.4) with 0.02% sodium azide, 0.4 M fructose and glucose, bovine serum albumin (10 mg/mL), and the sample. Next, the assay mixture was incubated at 60 °C for 2 days. After incubation, 200 μL of the reaction product was measured at excitation and emission wavelengths of 350 and 450 nm, respectively. All samples and positive control (aminoguanidine) were dissolved in 10% analytical-grade DMSO at five different final concentrations. All reactions were measured in black 96-well microplates and tested in triplicate. The percentage of inhibition (%) of the formation of AGE was estimated using the following formula: {(Ac − As)/Ac} × 100, where Ac is the fluorescence of the control and As is the fluorescence of the sample. Inhibition of the formation of AGE of each sample was presented in terms of IC50, as calculated from the log dose-inhibition curve.

[2] = molecular target: T1, β-site amyloid precursor protein cleaving enzyme 1 (BACE1) (Homo sapiens, UniProt P56817); experiment: BACE1 (β-secretase) FRET enzyme assay; assay type: biochemical; details: mean ± SD, n = 3
T1 construct: purchased Pan Vera Co. (Madison, WI, USA)
T1 sequence (P56817 22-501 limits assumed): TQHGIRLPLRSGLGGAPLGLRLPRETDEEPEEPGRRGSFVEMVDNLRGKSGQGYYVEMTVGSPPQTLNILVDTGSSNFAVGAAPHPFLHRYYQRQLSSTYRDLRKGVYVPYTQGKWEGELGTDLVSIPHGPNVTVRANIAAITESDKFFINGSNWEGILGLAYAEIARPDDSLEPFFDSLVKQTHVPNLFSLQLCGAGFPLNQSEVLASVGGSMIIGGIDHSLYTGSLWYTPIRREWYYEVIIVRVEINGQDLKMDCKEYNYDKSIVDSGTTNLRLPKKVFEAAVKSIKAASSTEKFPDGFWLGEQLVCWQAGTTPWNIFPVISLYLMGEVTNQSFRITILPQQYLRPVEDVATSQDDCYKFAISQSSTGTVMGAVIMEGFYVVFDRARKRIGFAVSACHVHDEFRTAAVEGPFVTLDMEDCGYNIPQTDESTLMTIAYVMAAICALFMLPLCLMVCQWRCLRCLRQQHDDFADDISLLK
Excerpt: (§1) Methanol (MeOH), ethanol (EtOH), n-hexane (Hx), dichloromethane (DCM), ethyl acetate (EA), n-butanol (BuOH) (Samchun Pure Chemical, Pyeongtaek, Gyeonggi, Korea) and distilled water were used for extraction, fractionation, and open column chromatography. Open column chromatography used silica gel 60 (40–63 μm; Merck, Darmstadt, Germany), Sephadex LH-20 (25–100 μm; Pharmacia, Stockholm, Sweden), MCI CHP 20P (Supelco, St. Louis, MO, USA), and octadecyl-silica (ODS) gel (400–500 mesh; Waters, Milford, MA, USA). Methanol-d4 (CD3OD) and dimethyl sulfoxide-d6 (DMSO-d6) were used for NMR analysis. The molecular weight was determined by ultra-high-performance liquid chromatography (UPLC) and high-resolution mass spectrometry (HRMS) by connecting an electrospray ionization hybrid linear trap-quadruple-Orbitrap MS system (ESI/LTQ-Orbitrap) to an Ultimate 3000 rapid separation liquid chromatography (RSLC) system (Thermo, Darmstadt, Germany). A TECAN Sunrise microplate reader and Infinite F200 pro (Männedorf, Zürich, Switzerland) were used for absorbance and fluorescence, respectively. High performance liquid chromatography (HPLC) was performed using Waters 2695 system pump and Waters 996 Photodiode array detector (Waters, Milford, MA, USA); data was extracted with Empower Pro 2.0 software. The separation column was a Waters Kromasil C18 column (4.6 × 250 mm, 5 μm). HPLC-grade solvents (e.g., acetonitrile and distilled water (H2O)) were purchased from J. T. Baker® (Phillipsburg, PA, USA). HPLC-grade acetic acid was purchased from Fisher Chemical (Janssen Pharmaceuticalaan, Geel, Belgium). In addition, analytical-grade dimethyl sulfoxide (DMSO), used as a solvent in the bioassay, was purchased from DEAJUNG Chemical (Siheung, Gyeonggi, Korea). Reagents and solvents, including AChE from electric eel, acetylthiocholine iodide (ATCh), BChE from equine serum, S-butyrylthiocholine iodide (BTCh), 5,5′- dithiobis [2-nitrobenzoic acid] […] The BACE1 (β-secretase) FRET assay kit was purchased from Pan Vera Co. (Madison, WI, USA).
The BACE1 enzyme assay was performed in accordance with the manufacturer’s recommended protocol, with minor modifications. Briefly, the assay mixture contained 1.0 U/mL of BACE1, 50 mM sodium acetate buffer (pH 4.5), the substrate (750 nM Rh-[…]-Quencher in 50 mM ammonium bicarbonate), and samples. […] The reaction mixture was incubated for 60 min at 25 °C in the dark. Prior to measurement, stop solution (2.5 M sodium acetate) was added to the assay mixture. […] All reactions were measured in black 96-well microplates and tested in triplicate. The percentage of inhibition (%) was obtained using the following formula: [1 − (S60 − S0)/(C60 − C0)] × 100, where C60 is the fluorescence of the control after 60 min of incubation, C0 is the initial fluorescence of the control, S60 is the fluorescence of the tested sample after 60 min of incubation, and S0 is the initial fluorescence of the tested sample. BACE1 inhibitory activity assay of each sample was presented in terms of IC50, as calculated from the log dose inhibition curve.

[3] = molecular target: T2, acetylcholinesterase (AChE) (Electrophorus electricus, UniProt O42275); experiment: biochemical; assay type: biochemical; details: mean ± SD, n = 3
T2 construct: purchased Sigma-Aldrich Co. (St. Louis, MO, USA)
T2 sequence (O42275 24-633): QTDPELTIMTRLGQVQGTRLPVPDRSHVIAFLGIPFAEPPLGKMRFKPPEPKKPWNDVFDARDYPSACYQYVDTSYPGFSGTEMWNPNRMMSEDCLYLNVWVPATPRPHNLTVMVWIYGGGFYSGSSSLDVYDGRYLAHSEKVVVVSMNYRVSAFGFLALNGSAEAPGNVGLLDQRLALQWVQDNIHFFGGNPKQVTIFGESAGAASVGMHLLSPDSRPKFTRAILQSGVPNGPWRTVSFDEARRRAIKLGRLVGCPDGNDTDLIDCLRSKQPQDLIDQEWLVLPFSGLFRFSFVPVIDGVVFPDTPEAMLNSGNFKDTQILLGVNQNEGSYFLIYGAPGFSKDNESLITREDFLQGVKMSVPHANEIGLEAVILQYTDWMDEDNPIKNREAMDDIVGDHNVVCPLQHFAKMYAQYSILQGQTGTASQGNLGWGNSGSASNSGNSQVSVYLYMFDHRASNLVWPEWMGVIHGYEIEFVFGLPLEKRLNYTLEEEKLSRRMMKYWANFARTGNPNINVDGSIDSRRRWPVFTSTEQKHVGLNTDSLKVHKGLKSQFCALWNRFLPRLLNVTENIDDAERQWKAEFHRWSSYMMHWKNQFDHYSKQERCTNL
Excerpt: as §1
(§2) The inhibitory activities of the test samples against ChE (AChE and BChE) were evaluated using the spectrophotometric method developed in a previous study. ATCh and BTCh were used as substrates to measure the inhibitory activities of AChE and BChE, respectively. The assay mixture contained 0.1 M sodium phosphate buffer (pH 7.8), 0.3 U/mL AChE or BChE, 0.5 mM DTNB, 0.6 mM ATCh or BTCh, and the tested sample solution that were mixed and incubated for 15 min at room temperature. […] Reactions started on addition of 10 μL of DTNB and 10 μL of either ATCh or BTCh. The ChE inhibitory activity was monitored based on the formation of the yellow 5-thio-2-nitrobenzoate anion at 412 nm for 15 min that was due to the reaction of DTNB and thiocholine released from ATCh or BTCh. All reactions were measured in 96-well microplates and tested in triplicate. The percentage of inhibition (%) was estimated using the following formula: {(Ac − As)/Ac} × 100, where Ac is the enzyme activity without the test sample and As is the enzyme activity with the test sample.

[4] = molecular target: T3, butyrylcholinesterase (BChE) (Equus caballus, UniProt P81908); experiment: biochemical; details: isolated compounds, mean ± SD, n = 3
T3 construct: BChE from equine serum; purchased Sigma-Aldrich Co. (St. Louis, MO, USA); host or cells: equine serum
T3 sequence (P81908 whole entry): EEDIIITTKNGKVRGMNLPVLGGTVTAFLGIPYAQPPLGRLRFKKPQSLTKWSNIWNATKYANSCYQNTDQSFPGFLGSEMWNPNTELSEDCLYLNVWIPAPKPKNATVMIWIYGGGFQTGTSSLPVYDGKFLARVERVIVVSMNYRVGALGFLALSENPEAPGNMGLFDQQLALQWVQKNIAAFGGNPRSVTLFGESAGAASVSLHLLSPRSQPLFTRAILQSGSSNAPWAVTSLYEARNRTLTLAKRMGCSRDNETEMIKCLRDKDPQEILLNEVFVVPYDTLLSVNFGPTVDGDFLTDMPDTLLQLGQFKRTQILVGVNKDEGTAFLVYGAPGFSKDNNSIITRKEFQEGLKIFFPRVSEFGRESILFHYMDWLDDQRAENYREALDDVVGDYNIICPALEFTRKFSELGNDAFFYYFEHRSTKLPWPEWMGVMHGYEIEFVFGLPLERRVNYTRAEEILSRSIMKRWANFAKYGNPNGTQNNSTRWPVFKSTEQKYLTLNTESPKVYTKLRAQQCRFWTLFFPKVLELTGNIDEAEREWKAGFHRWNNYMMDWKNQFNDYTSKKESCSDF
Excerpt: as §1, §2

[5] = tested on: neuroinflammation; design: method as in PMID 27623545; details: for the treatment of AD; cited from earlier work
[6] = isolated compounds, read-out: IC50 AChE
[7] = isolated compounds, read-out: IC50 BACE1

Row | SMILES | IC50 [1] [µM] | IC50 ([2]; IC50 BACE1, isolated compounds) [µM] | IC50 [3, 6] [µM] | IC50 ([4]; read-out: IC50 BChE) [µM] | also measured
1 | COC(=O)C1=CO[C@@H](O[C@@H]2O[C@H](CO)[C@@H](O)[C@H](O)[C@H]2O)[C@@H]2C(CO)=C[C@@H](OC(=O)/C=C/c3ccc(O)cc3)[C@H]12 [Compound 2, 6-O-p-coumaroyl scandoside methyl ester] | 381 ± 42.7 | 121 ± 14.8 | 298 ± 22.7 |  | 
2 | COC(=O)C1=CO[C@@H](O[C@@H]2O[C@H](CO)[C@@H](O)[C@H](O)[C@H]2O)[C@@H]2C(CO)=C[C@@H](OC(=O)/C=C/c3ccc(O)c(OC)c3)[C@H]12 [Compound 3, E-6-O-feruloyl scandoside methyl ester] |  | 121 ± 11.9 | 96.8 ± 5.29 | 116 ± 29.4 | 
3 | COc1cc(/C=C/C(=O)OC[C@H]2O[C@@H](O[C@H]3[C@H](Oc4c(-c5ccc(O)c(O)c5)oc5cc(O)cc(O)c5c4=O)O[C@H](CO)[C@@H](O)[C@@H]3O)[C@H](O)[C@@H](O)[C@@H]2O)ccc1O [Compound 10, quercetin-3-O-[2″-O-(6‴-O-E-feruloyl)-β-D-glucopyranosyl]-β-D-glucopyranoside] | 2.71 ± 0.06 | 4.49 ± 1.86 | 46.2 ± 1.59 | 13.8 ± 0.37 | 
4 | COC(=O)C1=CO[C@@H](O[C@@H]2O[C@H](CO)[C@@H](O)[C@H](O)[C@H]2O)[C@@H]2C(CO)=C[C@@H](OC(=O)/C=C/c3ccc(O)cc3)[C@H]12 [Compound 1, E-6-O-p-coumaroyl scandoside methyl ester] | 105 ± 14.5 | 63.3 ± 4.56 | 304 ± 12.2 |  | 
5 | CC(=O)OCC1=C[C@H](O)[C@@H]2C(C(=O)O)=CO[C@@H](O[C@@H]3O[C@H](CO)[C@@H](O)[C@H](O)[C@H]3O)[C@H]12 [Compound 9, asperulosidic acid] |  | > 500 |  |  | IC50 ([4]; IC50 BChE): 80.3 ± 19.8 µM; IC50 ([3]; IC50 AChE, isolated compounds): 68.3 ± 5.11 µM
6 | COc1ccc2cc3[n+](cc2c1OC)CCc1cc2c(cc1-3)OCO2 [Berberine, berberine, reference compound] |  |  |  |  | IC50 ([3]; IC50 AChE, extract and fractions): 0.327 µM; IC50 ([3]; IC50 AChE, isolated compounds): 0.31 ± 0.01 µM
7 | CC(=O)OCC1=C[C@@H]2OC(=O)C3=CO[C@@H](O[C@@H]4O[C@H](CO)[C@@H](O)[C@H](O)[C@H]4O)[C@H]1[C@@H]32 [Compound 5, asperuloside] | > 1000 | > 500 |  |  | IC50 ([4]; IC50 BChE): > 500 µM; IC50 ([3]; IC50 AChE, isolated compounds): 259 ± 7.48 µM
8 | O=c1c(O[C@@H]2O[C@H](CO)[C@@H](O)[C@H](O)[C@H]2O[C@@H]2O[C@H](CO)[C@@H](O)[C@H](O)[C@H]2O)c(-c2ccc(O)c(O)c2)oc2cc(O)cc(O)c12 [compound β, quercetin-3-O-sophoroside] |  |  |  |  | neuroinflammation inhibitory activity [5]: does not show effective neuroinflammation inhibitory activity
9 | COC(=O)C1=CO[C@@H](O[C@@H]2O[C@H](CO)[C@@H](O)[C@H](O)[C@H]2O)[C@@H]2C(CO)=C[C@@H](OC)[C@H]12 [Compound 7, 6-O-Methylscandoside methyl ester] |  | > 500 |  | 11.6 ± 0.68 | IC50 AChE ([3]; isolated compounds): did not inhibit AChE
10 | COC(=O)C1=CO[C@@H](O[C@@H]2O[C@H](CO)[C@@H](O)[C@H](O)[C@H]2O)[C@@H]2C(CO)=C[C@@H](O)[C@H]12 [Compound 8, scandoside methyl ester] |  |  | 158 ± 13.2 | 16.2 ± 2.05 | IC50 [2, 7]: > 500 µM
11 | COC(=O)C1=CO[C@@H](O[C@@H]2O[C@H](CO)[C@@H](O)[C@H](O)[C@H]2O)[C@@H]2C(CO)=C[C@H](OC)[C@H]12 [Compound 6, 6-O-Methyldeacetylasperulosidic acid methyl ester] |  | > 500 | 81.1 ± 5.58 | 32.2 ± 2.8 | 
12 | COC(=O)C1=CO[C@@H](O[C@@H]2O[C@H](CO)[C@@H](O)[C@H](O)[C@H]2O)[C@@H]2C(CO)=C[C@H](O)[C@H]12 [Compound 4, deacetylasperulosidic acid methyl ester] |  |  | 172 ± 20.6 | 17.6 ± 0.78 | IC50 [2, 7]: > 500 µM
13 | N=C(N)NN [AMG, aminoguanidine, reference compound] |  |  |  |  | IC50 AGE Formation ([1]; extract and fractions): 131.92 ± 11.24 µg/mL (≈ 1780 µM)
